Columns and labels:
[1] = system: NCI-H1793 (Lung Adenocarcinoma); test: Bliss excess, mean over the matrix (fraction); higher = more synergy
Summary of the method: (§1)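 Cell lines in DMEM/F12 or RPMI with 10% FBS were plated in 1536-well plates, held 24 hours at 37°C, 5% CO2, then given two-drug dose matrices for 72 hours (DMSO typically 0.2%). Viability was read by CellTiter-Glo 2.0 luminescence and scaled as inhibition from 0 (vehicle wells) to 1 (blank wells). Combination Emax is the second-highest inhibition in the matrix; Bliss excess is observed combination effect minus expected EA + EB − EA·EB, EA and EB being single-agent effects.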

NCI-H2369 (Mesothelioma) = test: as above
Summary of the method: as §1

[2] = system: NCI-H1781 (Lung Adenocarcinoma); test: as above
Summary of the method: as §1

[3] = system: COR-L95 (Small Cell Lung Carcinoma); test: as above
Summary of the method: as §1

[4] = system: NCI-H1299 (Non-Small Cell Lung Carcinoma); test: as above
Summary of the method: as §1

[5] = system: CTV-1 (T-Lymphoblastic Leukemia); test: as above
Summary of the method: as §1

[6] = system: OCI-AML2 (Acute Myeloid Leukemia); test: as above
Summary of the method: as §1

[7] = system: DMS-273 (Small Cell Lung Carcinoma); test: as above
Summary of the method: as §1

SN12C (Kidney Carcinoma) = test: as above
Summary of the method: as §1

[8] = system: HPAC (Pancreatic Carcinoma); test: combination Emax (second highest fraction inhibited in the dose matrix, 72 h); higher = more inhibition; extreme values may be limits of the assay
Summary of the method: as §1

NCI-H2595 (Mesothelioma) = test: as above
Summary of the method: as §1

IGR-1 (Melanoma) = test: as above
Summary of the method: as §1

[9] = system: IHH-4 (Thyroid Gland Carcinoma); test: as above
Summary of the method: as §1

[10] = system: NCI-H1781 (Lung Adenocarcinoma); test: as above
Summary of the method: as §1

[11] = system: TGBC24TKB (Biliary Tract Carcinoma); test: as above
Summary of the method: as §1

[12] = system: COR-L95 (Small Cell Lung Carcinoma); test: as above
Summary of the method: as §1

[13] = system: NALM-6 (B-Lymphoblastic Leukemia); test: as above
Summary of the method: as §1

[14] = system: OCI-AML2 (Acute Myeloid Leukemia); test: as above
Summary of the method: as §1

[15] = system: DMS-273 (Small Cell Lung Carcinoma); test: as above
Summary of the method: as §1

[16] = system: G-292-Clone-A141B1 (Osteosarcoma); test: as above
Summary of the method: as §1
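For Bliss excess, mean over the matrix in this document: after 72 h of two-drug dosing.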

Work on CC1(C)CCC(CN2CCN(c3ccc(C(=O)NS(=O)(=O)c4ccc(NCC5CCOCC5)c([N+](=O)[O-])c4)c(Oc4cnc5[nH]ccc5c4)c3)CC2)=C(c2ccc(Cl)cc2)C1 [Venetoclax] + Cn1cnc2c(F)c(Nc3ccc(Br)cc3Cl)c(C(=O)NOCCO)cc21 [Selumetinib] (first compound max 1 µM, 7x7, partner max 3 µM) yielded a Bliss excess [1] of -0.0096, a Bliss excess (NCI-H2369 (Mesothelioma)) of -0.0308 and a Bliss excess [2] of -0.0437. It also gave a Bliss excess [3] of -0.0265, a Bliss excess [4] of -0.0424 and a Bliss excess [5] of -0.0173. It also gave a Bliss excess [6] of 0.014, a Bliss excess [7] of -0.0184 and a Bliss excess (SN12C (Kidney Carcinoma)) of -0.0489. For the same molecule, the “combination Emax” value [8] was 0.559, the “combination Emax” value (NCI-H2595 (Mesothelioma)) was 0.129 and the “combination Emax” value (IGR-1 (Melanoma)) was 0.301. For the same molecule, the “combination Emax” value [9] was 0.539, the “combination Emax” value [10] was 0.166 and the “combination Emax” value [11] was 0.293. The “combination Emax” value [12] was 0.572, the “combination Emax” value [13] was 0.908 and the “combination Emax” value [14] was 1. The “combination Emax” value [15] was 0.214 and the “combination Emax” value [16] was 0.146.

Reference: the supplement of paper PMC11061612
